In ChEMBL document CHEMBL1201862, “PubChem BioAssay data set” (2004):
Activity calls are given as the source filed them. For most assays here, no stated cut-off is given here; in the data, actives have a measured EC50 and inactives only a lower limit.

Legend:
[1] = target: T1, DNA repair protein RAD52 homolog (Homo sapiens, UniProt P43351); type: functional, biochemical
T1 sequence (P43351 whole entry): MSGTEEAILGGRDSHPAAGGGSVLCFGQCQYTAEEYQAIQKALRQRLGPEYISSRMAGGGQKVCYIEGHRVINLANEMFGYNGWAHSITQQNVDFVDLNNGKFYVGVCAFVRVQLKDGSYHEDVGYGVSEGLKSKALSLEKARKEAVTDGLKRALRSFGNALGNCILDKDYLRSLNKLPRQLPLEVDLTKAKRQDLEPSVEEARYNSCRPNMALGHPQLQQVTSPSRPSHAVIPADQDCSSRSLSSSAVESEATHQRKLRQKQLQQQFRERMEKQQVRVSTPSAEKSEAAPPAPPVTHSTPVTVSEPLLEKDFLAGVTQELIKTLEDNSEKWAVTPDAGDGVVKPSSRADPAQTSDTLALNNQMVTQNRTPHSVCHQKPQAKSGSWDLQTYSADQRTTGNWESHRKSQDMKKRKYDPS

[2] = tested on: Vero; assay: cells; type: functional; settings: Chlorocebus sabaeus
[3] = Trypanosoma cruzi growth suppression in host cells – NIH3T3 host cells, beta-gal luminescence, confirmation (AID 2044); type: functional, cell-based;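 further: intracellular parasites grown in NIH/3T3 mouse fibroblasts as host cells; luminescent beta-galactosidase reporter signal from transgenic T. cruzi replicating inside host cells; inhibitors lower the luminescence signal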
[4] = NIH3T3 cell viability loss – ATP luminescence, mouse fibroblasts, counter-screen, dose response (AID 2010); type: functional, cell-based;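 further: cells exposed to compound for about 90 hours before reading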
[5] = target: T2, Zinc finger protein mex-5 (Caenorhabditis elegans, UniProt Q9XUB2); assay: potency of MEX-5 RNA-binding blockers – biochemical, C. elegans, fluorescence polarization, dose response (AID 1960)
T2 sequence (Q9XUB2 whole entry): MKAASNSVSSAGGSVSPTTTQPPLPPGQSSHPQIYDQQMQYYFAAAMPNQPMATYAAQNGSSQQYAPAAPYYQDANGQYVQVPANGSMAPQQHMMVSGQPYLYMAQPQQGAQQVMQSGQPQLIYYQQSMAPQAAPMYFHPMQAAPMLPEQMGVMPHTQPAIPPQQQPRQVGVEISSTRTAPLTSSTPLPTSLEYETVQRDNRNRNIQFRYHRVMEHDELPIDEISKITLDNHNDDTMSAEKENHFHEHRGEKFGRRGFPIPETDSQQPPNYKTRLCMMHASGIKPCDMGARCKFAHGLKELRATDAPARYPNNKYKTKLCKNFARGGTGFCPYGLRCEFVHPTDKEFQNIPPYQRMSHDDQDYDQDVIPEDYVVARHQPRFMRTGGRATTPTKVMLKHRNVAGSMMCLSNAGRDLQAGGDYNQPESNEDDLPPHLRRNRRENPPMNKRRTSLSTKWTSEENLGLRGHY

[6] = target: T3, RNA-binding protein pos-1 (Caenorhabditis elegans, UniProt G5EF15); assay: disruptors of C. elegans POS-1 RNA interaction – biochemical, fluorescence polarization, dose response (AID 1964);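 further: purified POS-1 fused to maltose binding protein made in E. coli; potency of compounds blocking POS-1 binding to fluorescent RNA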
T3 sequence (G5EF15 whole entry): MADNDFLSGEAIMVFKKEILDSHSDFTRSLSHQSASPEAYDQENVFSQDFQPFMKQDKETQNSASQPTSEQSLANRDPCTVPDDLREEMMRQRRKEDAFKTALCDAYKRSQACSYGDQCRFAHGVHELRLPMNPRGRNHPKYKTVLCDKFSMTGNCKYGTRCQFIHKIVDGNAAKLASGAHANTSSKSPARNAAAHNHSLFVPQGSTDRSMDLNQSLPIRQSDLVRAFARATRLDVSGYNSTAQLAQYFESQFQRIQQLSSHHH

Cc1cc(N2CCCC2)nc2ccc(NC(S)=NCCCN3CCC(C)CC3)cc12
AC50 [1]: 2.27 µM (active) | CC50 [2]: > 25 µM (active) | EC50 [3]: 2.03 µM (active) | EC50 [4]: 14.2 µM (active)

CC1CCN(C(=O)CCN2C(=O)/C(=C/c3cccs3)SC2=S)CC1
EC50 [5]: > 300 µM (not active) | CC50 [2]: 17.3 µM (active) | EC50 [6]: > 300 µM (not active)
